row,Structure (SMILES),melting point
1,Cn1c(=O)c(-c2ccc(Cl)cc2Cl)cc2c3cc(-c4cnco4)ccc3n(C)c21,170 to 174 °C
2,CCn1c(Oc2ccc(F)cc2)nnc1[C@@H](C)N(C)S(=O)(=O)c1ccc(Cl)c(Cl)c1,126 °C
3,O=c1oc2ccccc2n1CCN1CCc2c([nH]c3ccccc23)C1,135 to 137 °C
4,COc1cc(CCCn2cncn2)ccc1O,97 to 98 °C
5,CCOC(=O)c1cn(Cc2ccccc2)nc1NC(=O)NC1CCCCC1,94 to 95 °C
6,c1cc2c(cc1N1CCNCC1)OCCO2,138 °C
7,CC(C)(C)C1CCC(OO)(OO)CC1,83 to 84 °C
8,CCC1(c2ccc(Cl)cc2)OCc2c1cnc(C)c2O (stereo not given),215 °C
9,Cc1oc(=O)oc1Cn1cc[nH]c(=O)c1=O,225 to 226 °C
10,O=S(=O)(Cl)c1ccc2c(S(=O)(=O)Cl)cc(S(=O)(=O)Cl)cc2c1,195 to 197 °C
11,CC(=O)OCc1nn(C(C)=O)c2cccc(OCc3ccccc3)c12,99 to 100 °C
12,Cc1cccc(-c2sc(N)nc2-c2ccnc(-c3ccc(CN4CCCC4)cc3)c2)n1,200 °C
13,Fc1ccc(Cn2c(NC3CCN(CCc4ccccc4)C3)nc3ccccc32)cc1 (stereo not given),126 °C
14,CCCc1c(OCCCCCc2nnnn2C)ccc(C(C)=O)c1O,72 to 75 °C
15,COc1cc2c(cc1OC)C(C(S)(C#N)c1ccccc1C(=O)O)=NCC2 (stereo not given),245 to 247 °C
16,CCOc1cc(C2=NN(C3CCCC3)C(=O)[C@H]3CC=CC[C@@H]23)ccc1OC (relative stereo),124 to 127 °C
17,CC(C)NC(=O)N1CCc2[nH]cnc2C1C(C)C (stereo not given),202 °C
18,CCC(=O)C(O)=NNc1cc([N+](=O)[O-])ccc1Br,263 to 265 °C
19,CC(=O)NC1CSc2ccccc2NC1=O (stereo not given),283 to 286 °C
20,COC(=O)[C@@H]1C(=O)c2cc(OCc3ccccc3)ccc2[C@H]1c1ccc2c(c1)OCO2 (racemic),148 to 150 °C
21,COCOc1ccc(C=O)c(O)c1,52 to 53 °C
22,COCCOc1cc2c(cc1C#Cc1ccccc1)NC(=O)CC(c1cccc(C#N)c1)=N2,174 to 176 °C
23,Oc1c(Br)cc(-c2cccc3sc4c(Br)cccc4c23)cc1Br,118 to 119 °C
24,CC12CC(O)C3c4ccccc4C(=O)CC3C1CCC2O (stereo not given),205 to 208 °C
25,COc1ccc(-c2c(-c3ccccc3)nc3n2Cc2ccccc2C3)cc1,183 to 185 °C

row,Structure (SMILES),melting point
1,CCc1cc(C)cc(CC)c1C1C(=O)C2=CC(COCOC)CC2C1=O (stereo not given),155 to 156 °C
2,CCN(CC)c1ccc(NC(=O)N(C[C@H]2CC[C@H](CN(C(=O)Nc3ccc(N(CC)CC)cc3)C3CCCCC3)CC2)C2CCCCC2)cc1,212 to 217 °C
3,Cc1c(CN(C)CCc2ccc(NS(C)(=O)=O)cc2)oc2ccc([N+](=O)[O-])cc12,124 °C
4,CN(C)C(c1cccc(F)c1)C1CCC(C=O)CC1 (stereo not given),40 to 43 °C
5,O=C1N(Cc2noc(C(F)F)n2)c2ccccc2C12COc1cc3c(cc12)OCO3 (stereo not given),137 to 139 °C
6,COc1ccc(C(O)CN2CCNC2=S)cc1 (stereo not given),110 °C
7,CC(=O)NCc1ncccc1OCc1ccccc1,94 to 96 °C
8,COc1ccc(-c2ccncc2)cc1-c1ccc2nonc2c1,187 to 192 °C
9,COc1cc(-c2nc(-n3cccn3)c3c(C)c(C#N)sc3n2)cc(OC)c1OC,209 to 214 °C
10,CS(=O)(=O)Nc1ccc(C#Cc2cnn3c(C(F)(F)F)cc(-c4ccc(C(F)(F)F)cc4)nc23)cn1,261 to 263 °C
11,CC1CCc2nc(=O)c(-c3ccccc3)cn21 (stereo not given),178 °C
12,CN(C)CCS(=O)(=O)NC(=O)CCn1c2ccc(O)cc2c2c3c(c(-c4ccccc4Cl)cc21)C(=O)NC3=O,229 to 233 °C
13,Cc1cccc2c(C(=O)C(=O)NC3=CC(=O)OC3)c(C)n(Cc3ccc(Cl)cc3)c12,283 to 285 °C
14,CC(C)(C)c1cc(-c2n[nH]c(=S)[nH]2)cc(C(C)(C)C)c1O,271 °C
15,Cc1ccccc1-c1ccc(C(=O)N2Cc3ccc(C(=O)C(Cl)(Cl)Cl)n3Cc3ccccc32)cc1C,212 to 214 °C
16,O=[N+]([O-])c1ccc(-c2ncnn2-c2ccc(Br)cc2)cc1,142 to 144 °C
17,CC(c1ccccc1)c1n[nH]c2c1c(=O)n(-c1ccccc1)c1ncccc21 (stereo not given),267 to 268 °C
18,CC(C)(C)C1c2ccccc2CCC1O (stereo not given),104 °C
19,CCCCCCN1C(=O)NC(=O)C1O (stereo not given),96 to 97 °C
20,CCN1C(=O)CCC(C)(C)c2cc(Nc3ncc(Cl)c(Nc4ccc(N5CCOCC5)cc4OC)n3)ccc21,255 °C
21,COc1ccc(-c2nn(CCCc3ccccc3)c(=O)cc2-c2ccncc2)cc1,67.7 to 68.3 °C
22,O=c1oc2ccc(Cl)cc2c(O)c1CCO,185 to 186 °C
23,CC(C)CCc1cc(C(O)=S)cc(N)c1C(=O)c1ccccc1,141 to 142 °C
24,CC(=O)N1CCCC(=O)c2ccc(Cl)cc2C(c2ccccc2)CC1=O (stereo not given),184 to 185 °C
25,CCN1C(=O)C(C)(C)C(=O)N(C)c2cc(CN(CCn3cc(C)c4occc4c3=O)Cc3cc(COC)nn3C)ccc21,169 to 170 °C

row,Structure (SMILES),melting point
1,C=CC1CCCC(=O)N1Cc1ccccc1Cl (stereo not given),37 to 39 °C
2,CC(=O)/C=C(\C)c1ccc(C2CCCCC2)cc1,49 to 50 °C
3,NS(=O)(=O)c1nnc(NC(=O)c2cnn3c(C(F)F)cc(-c4ccc(C(F)(F)F)cc4)nc23)s1,284 °C
4,O=C(/C=C/c1c(F)cccc1Cl)/C=C/c1c(F)cccc1Cl,144 °C
5,O=C(Nc1ccc(Br)cc1)C(=O)N1CCC(Cc2ccccc2)CC1,131 to 132 °C
6,CCOc1ccc(Nc2ncc3cc(-c4c(Cl)cccc4Cl)c(=O)n(CC)c3n2)cc1,192 to 194 °C
7,Cc1cc(Br)c(C=O)c2ccccc12,93 °C
8,Cc1nnc(-c2ccc3occ(-c4ccncc4)c3c2)o1,166 to 167 °C
9,COC(=O)C(CO)N(Cc1ccccc1N)S(=O)(=O)c1ccc(OC)cc1 (stereo not given),138 to 140 °C
10,O=c1cc(-c2ccccc2)n(-c2ccccc2)c(-c2ccccc2)c1C(F)(F)F,222 to 225 °C
11,COP(=O)(CCC(C)(C)c1ccc(O)cc1)OC,98 to 101 °C
12,CS(=O)(=O)Nn1c(=O)[nH]c2cc(C(F)(F)F)c(Oc3cccnc3)cc2c1=O,194 to 196 °C
13,COC(=O)C(Cc1ccccc1)Oc1c(Br)cc(-c2ccc(-c3nc(-c4ccc(C(F)(F)F)cc4)oc3C)cc2)cc1Br (stereo not given),70 to 72 °C
14,CC1Cc2c(c(Cl)cc(F)c2N2C(=O)C3=C(CCCC3)C2=O)O1 (stereo not given),169 to 171 °C
15,c1n[nH]c2c1CCc1[nH]ncc1-2,219 to 221 °C
16,CC(C)(C)c1ccc2c(c1)C=C(/C=C/C=C/C=C/C(=O)O)CO2,200 to 202 °C
17,O=C1CN(S(=O)(=O)CC(Cc2ccccc2)C(=O)O)CCN1 (stereo not given),168 to 171 °C
18,O=c1c2c(cc3n1CCCS3(=O)=O)CCCC2,232 to 233 °C
19,CCCCOc1ccc(CCCOc2c(CC(=O)O)cccc2OC)c(Oc2ccc(C(F)(F)F)cn2)c1,69 to 70 °C
20,CC1(C)Oc2ccc(C#N)cc2C(OC(=O)C2CCCN2S(=O)(=O)c2cccc([N+](=O)[O-])c2)C1Br (stereo not given),171 to 174 °C
21,O=C1NC(=O)C(c2ccccc2)(c2ccccc2)N2CCN(C(=O)OCc3ccccc3)CC12 (stereo not given),151 to 152 °C
22,CSc1cnc2ccccc2c1,40 °C
23,OCCc1nccn1CCCc1ccc(OCc2coc(/C=C/c3ccc(F)cc3F)n2)cc1,94 to 96 °C
24,Cc1cc(-n2nc(C(F)F)cc2-c2ccc(S(C)(=O)=O)cc2)ccc1F,154 to 155 °C
25,CCOC(=O)C1=C(C)NC(C=O)=C(C(=O)OCC)C1c1ccccc1[N+](=O)[O-] (stereo not given),101 to 103 °C

row,Structure (SMILES),melting point
1,CCc1nc(C)c(/C=C(\NC(=O)c2ccc(C(=O)NCc3cccc(O)c3)cc2Cl)C(=O)OC)s1,> 200 °C
2,Cn1c(NC(=N)N)nc2ccccc21,178 to 179 °C
3,Cc1nc(-c2ccccc2C(F)(F)F)c2c(n1)N(c1ccc(C(C)C)cc1Br)CC(=O)N2,238 to 239 °C
4,N#Cc1cnn(-c2ccc(Cl)cc2Cl)c1C(F)(F)F,83 to 85 °C
5,Cc1ccc(S(=O)(=O)OCC2CCc3cc(Br)ccc3C2)cc1 (stereo not given),87 to 89 °C
6,COc1cc2c(cc1OC)C(O)=C(c1cc(OCc3ccccc3)ccc1[N+](=O)[O-])C2=O,120 °C
7,O=C(O)c1ccc(=O)n(CCCNC(=O)c2cccnc2)c1,218 to 220 °C
8,COc1cccc(OC)c1CN1C(=O)C2CCCN2c2ncccc21 (stereo not given),200 to 202 °C
9,COc1ccc2cnc(=O)[nH]c2c1C1CCCC1,201 to 204 °C
10,COCC(=O)c1c[nH]c2ncc(-c3cc(OC)c(OC)c(OC)c3)nc12,229 to 230 °C
11,Brc1ccc(Cc2ccc(Br)cc2)cc1,62 to 62.5 °C
12,NC(=O)c1ccc(N)nc1F,236 to 237 °C
13,COCCOc1cc(Cc2cnc(N)nc2N)cc2c1NCCC2,149 to 151 °C
14,CCCSc1nc(C)nc(S)c1[N+](=O)[O-],162 to 164 °C
15,CCOC(=O)c1ccc(CCN2CCN(CCCS(=O)(=O)O)CC2)cc1,235 to 236 °C
16,COC(=O)C(=O)c1ccc(OCCOc2ccc3ccccc3c2)cc1,155 to 157 °C
17,CCNc1nc(Cc2cc(OC)c(OC)c(OC)c2)nc2sc(C#N)c(C)c12,164 to 165 °C
18,Cn1nc(-c2ccc3cc(O)ccc3c2)c2ccc(O)cc21,290 to 292 °C
19,O=C(O)CN(CC(=O)O)Cc1cc(S(=O)(=O)c2ccc(OCc3ccccc3)cc2)cc(CN(CC(=O)O)CC(=O)O)c1O,138 to 143 °C
20,COc1ccc(Cn2c3ccccc3c3c(N)c4c(nc32)CC(c2ccccc2)CC4=O)cc1 (stereo not given),163 to 165 °C
21,CCOC(=O)c1ncc2[nH]c3ccc(C4COC(O)C4)cc3c2c1C (stereo not given),177 to 180 °C
22,COc1ccc(CC(C)NCC(O)c2cccc(F)c2)cc1 (stereo not given),85 to 89 °C
23,CCOC(=O)C(CC(=O)c1ccc(OC)cc1)(NC(C)=O)C(=O)OCC,120 to 122 °C
24,CCCCNC(=O)c1nc2cnn(CC)c2nc1C,64 to 65 °C
25,C[C@H](NC(=O)OC(C)(C)C)C(=O)ON1C(=O)CCC1=O,164 °C

# — a melting point compilation (Tetko et al.; mined from patent text by program, amines drawn as free bases though some values may be those of a salt)
